Data from patent publication US10513534B2, “2′-chloro nucleoside analogs for HCV infection” (priority 2012, dated 2019).
Where two headings read alike, the source gives them in different places.

Experiments:
[1] = Liver triphosphate pharmacokinetics after single oral dose in CD-1 mice; type: in vivo; parameters: key: + ≤ 15; 15 < ++ ≤ 50; 50 < +++ ≤ 100; 100 < ++++; BLQ = below limit of quantitation; details: single oral dose 10 mg/kg in PEG 200;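 for Ms Liver TP AUC: pmol·h/g liver normalized to a 1 µmol/kg dose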;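 for Ms Liver TP Cmax: pmol/g liver normalized to a 1 µmol/kg dose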
Description: Internal standard solution was added to the homogenate followed by neutralization with 20% ammonium hydroxide solution and addition of 500 μL 1% formic acid. The tissue samples were extracted by weak anion exchange solid phase extraction (SPE). Post extraction, the eluates were evaporated under nitrogen, followed by reconstitution before injection onto the LC-MS/MS system.

in vitro = details: human
[2] = Plasma nucleoside pharmacokinetics after single oral dose in CD-1 mice; type: in vivo; details: single oral dose 10 mg/kg in PEG 200;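 for Ms Plasma nucleoside AUC: pmol·h/mL plasma normalized to a 1 µmol/kg dose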
Description: Plasma samples were analyzed for nucleoside by LC-MS/MS. The internal standard (IS) was either 2′-MeG-D3 or tiapride. For protein precipitation and extraction, each plasma sample (50 μL) was treated with 500 μL of 0.2% formic acid in acetonitrile and 20 μL of the internal standard working solution. After vortexing and centrifugation, 500 μL of the sample extracts were transferred to a new plate, dried under N2 at ˜28° C. and reconstituted with 75 μL of 0.2% FA in water. The extracts were chromatographed on an Aquasil C18 column using a gradient system of 0.2% formic acid in water and acetonitrile. The analytes were detected and quantified by tandem mass spectrometry in positive ion mode on an MDS Sciex API5000 equipped with a Turbo Ionspray® interface. The calibration range was 0.500 (LLOQ) to 200 ng/mL in mouse plasma.

HCV genotype 1b replicon = assay: HCV replicon assay (Zluc luciferase); type: cell-based; details: Zluc cells, 72 hours, read-out: HCV Replicon EC50
Description: Huh-7-derived cell line (Zluc) that harbors an HCV genotype 1b replicon and a luciferase reporter gene was grown in Dulbecco's Modified Eagle Medium (DMEM) supplemented with 10% fetal bovine serum, 2 mM GlutaMAX, 1% MEM nonessential amino acids, 100 IU/mL penicillin, 100 μg/mL streptomycin, and 0.5 mg/mL Geneticin® (G418). For dose response testing the cells were seeded in 96-well plates at 7.5×10^3 cells per well in a volume of 50 μL, and incubated at 37° C./5% CO2. Drug solutions were made up freshly in Huh-7 media as 2× stocks. Ten additional 5-fold dilutions were prepared from these stocks in DMEM without G418. At least three hours after Zluc cells were seeded, drug treatment was initiated by adding 50 μL of drug dilutions to the plates in duplicate. Final concentrations of drug ranged from 100 μM to […]. Cells were then incubated at 37° C./5% CO2. Alternatively, compounds were tested at two concentrations (1 μM and 10 μM). […] For this, media was removed from the plates via gentle tapping. Fifty microliters of ONE-glo luciferase assay reagent was added to each well. The plates were shaken gently for 3 min at room temperature and luminescence was measured on a Victor^3 V 1420 multilabel counter (Perkin Elmer) with a 1 second read time using a 700 nm cut-off filter. The EC50 values were calculated from dose response curves from the resulting best-fit equations determined by Microsoft Excel and XLfit 4.1 software. When screening at two fixed concentrations, the results were expressed as % inhibition at 1 μM and 10 μM.

Question: With `CC(C)OP1(=O)OC[C@H]2O[C@@H](n3ccc(=O)[nH]c3=O)[C@](C)(Cl)[C@@H]2O1` (single isomer, unassigned) [Compound 37 Diastereomer 1] as the compound, how does the “Ms Liver TP AUC” value [1] read?
Answer: ++++ (1500 < ++++)

Question: And the “Ms Liver TP Cmax” value [1]?
Answer: ++++ (100 < ++++)

Question: And the CC50 (in vitro)?
Answer: > 50 µM

Question: What about the “Ms Plasma nucleoside AUC” value [2] of the same compound?
Answer: +++ (500 < +++ ≤ 1500)

Question: And the “Ms Plasma nucleoside Cmax” value [2]?
Answer: +++ (50 < +++ ≤ 100)

Question: And the EC50 (HCV genotype 1b replicon; Hepatitis C virus, 72 h)?
Answer: 1 to 10 µM

Question: With `CC(C)(C)C(=O)SCCOP1(=O)OC[C@H]2O[C@@H](n3ccc(N)nc3=O)[C@](C)(Cl)[C@@H]2O1` (single isomer, unassigned) [Compound 61 Diastereomer 1] as the compound, how does the “Ms Liver TP AUC” value [1] read?
Answer: +++ (500 < +++ ≤ 1500)

Question: And the “Ms Liver TP Cmax” value [1]?
Answer: +++ (50 < +++ ≤ 100)

Question: And the CC50 (in vitro)?
Answer: > 50 µM

Question: And the “Ms Plasma nucleoside AUC” value [2]?
Answer: + (+ ≤ 150)

Question: What about the “Ms Plasma nucleoside Cmax” value [2] of the same compound?
Answer: ++++ (100 < ++++)

Question: And the EC50 (HCV genotype 1b replicon; Hepatitis C virus, 72 h)?
Answer: < 0.25 µM

Question: Which results are given for `CCOC(=O)NCC(C)(C)C(=O)SCCOP1(=O)OC[C@H]2O[C@@H](n3ccc(=O)[nH]c3=O)[C@](C)(Cl)[C@@H]2O1` (single isomer, unassigned) [Compound 70 Single Diastereomer]?
Answer: Ms Liver TP AUC [1]: ++++ (1500 < ++++); Ms Liver TP Cmax [1]: ++++ (100 < ++++); CC50 (in vitro): > 50 µM; Ms Plasma nucleoside AUC [2]: ++++ (1500 < ++++); Ms Plasma nucleoside Cmax [2]: ++++ (100 < ++++); EC50 (HCV genotype 1b replicon; Hepatitis C virus, 72 h): < 0.25 µM

Question: Which results are given for `CC(C)(C)C(=O)SCCOP1(=O)OC[C@H]2O[C@@H](n3ccc(=O)[nH]c3=O)[C@](C)(Cl)[C@@H]2O1` (single isomer, unassigned) [Compound 201 Single Diastereomer]?
Answer: Ms Liver TP AUC [1]: ++++ (1500 < ++++); Ms Liver TP Cmax [1]: ++++ (100 < ++++); CC50 (in vitro): > 50 µM; Ms Plasma nucleoside AUC [2]: +++ (500 < +++ ≤ 1500); Ms Plasma nucleoside Cmax [2]: +++ (50 < +++ ≤ 100); EC50 (HCV genotype 1b replicon; Hepatitis C virus, 72 h): < 0.25 µM

Question: Which results are given for `CCCCOC(=O)[C@@H](C)NP(=O)(OC[C@H]1O[C@@H](n2ccc(=O)[nH]c2=O)[C@](C)(Cl)[C@@H]1O)Oc1ccccc1` (single isomer, unassigned) [Compound 202i Diastereomer 1]?
Answer: Ms Liver TP AUC [1]: ++++ (1500 < ++++); Ms Liver TP Cmax [1]: ++++ (100 < ++++); CC50 (in vitro): > 50 µM; Ms Plasma nucleoside AUC [2]: ++++ (1500 < ++++); Ms Plasma nucleoside Cmax [2]: ++++ (100 < ++++); EC50 (HCV genotype 1b replicon): 1 to 10 µM

Question: With `C[C@@H](NP(=O)(OC[C@H]1O[C@@H](n2ccc(=O)[nH]c2=O)[C@](C)(Cl)[C@@H]1O)Oc1ccccc1)C(=O)OCc1ccccc1` (single isomer, unassigned) [Compound 205i Diastereomer 1] as the compound, how does the “Ms Liver TP AUC” value [1] read?
Answer: ++++ (1500 < ++++)

Question: What about the “Ms Liver TP Cmax” value [1] of the same compound?
Answer: ++++ (100 < ++++)

Question: And the CC50 (in vitro)?
Answer: > 50 µM

Question: What about the “Ms Plasma nucleoside AUC” value [2] of the same compound?
Answer: +++ (500 < +++ ≤ 1500)

Question: And the “Ms Plasma nucleoside Cmax” value [2]?
Answer: +++ (50 < +++ ≤ 100)

Question: And the EC50 (HCV genotype 1b replicon)?
Answer: 1 to 10 µM

Question: Which results are given for `C[C@@]1(Cl)[C@H](O)[C@@H](CO)O[C@H]1n1ccc(=O)[nH]c1=O` [Compound 301, 2′-C-Chloro-2′-C-methyluridine]?
Answer: Ms Liver TP AUC [1]: BLQ; Ms Liver TP Cmax [1]: BLQ; CC50 (in vitro): > 50 µM; Ms Plasma nucleoside AUC [2]: +++ (500 < +++ ≤ 1500); Ms Plasma nucleoside Cmax [2]: +++ (50 < +++ ≤ 100); EC50 (HCV genotype 1b replicon; Hepatitis C virus, 72 h): > 10 µM
